Data published in patent publication US12419951B2, “Preparation of zinc risedronate micro/nano adjuvant and use thereof as vaccine adjuvant” (priority 2019, dated 2025).

Test system: hepatitis B therapeutic protein
Conditions: same risedronate content as Zn-risedronic acid (1/0.125) group
Procedure: Using the experimental procedure described in Example 4, mice were immunized with zinc risedronate adjuvant in combination with hepatitis B therapeutic protein by intramuscular injection, and serum antibody titers were detected. The specific method was as follows:
Experimental animals: Balb/C mice, 6-8 weeks, 5 mice/group, female.
Immunization protocol: antigen 1.2 μg/mouse, adjuvant and hepatitis B therapeutic protein were mixed at a volume ratio of 1:1 to form a vaccine, and then injected intramuscularly to mice, 150 μL per mouse, and 75 μL on each hind leg. The immunization was performed on the 0th, 2nd, 3rd, 4th, 5th and 6th week, 1.2 μg of antigen per mouse, blood samples were collected from eye socket after the 6th week, and ELISA was used to determine the levels of specific antibodies in serum.

O=P(O)(O)C(O)(Cc1cccnc1)P(=O)(O)O [sodium risedronate, Risedronate sodium]
difference in humoral immune response compared with aluminum adjuvant: no statistically significant difference | humoral immune stimulation effect: a certain humoral immune stimulation effect
